Measurements reported in article PMC5515971, “Utility of spherical human liver microtissues for prediction of clinical drug-induced liver injury” (Archives of Toxicology, 2017).
pIC50: −log10 of the molar value. Like-named read-outs stand apart in the source and are kept apart here.

Legend:
[1] = ref Chen et al 2016 / Chen et al 2011; cited from earlier work
[2] = system: primary human hepatocytes (PHH); assay: Cytotoxicity (cellular ATP, CellTiter-Glo) in 2D plated primary human hepatocytes, 48 h treatment; assay type: cell-based; conditions: for pIC50: Hepatocyte, 2D primary human hepatocytes (lot IZT), 48 h treatment, total cellular ATP content, read-out: Geomean IC50;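 for all read-outs here: 384-well plates, luminescence read-out, normalized to vehicle wells with 1% DMSO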
[3] = system: 3D human liver microtissues (hLiMT); assay: Cytotoxicity (cellular ATP, CellTiter-Glo 2.0) in 3D human liver microtissues, 14 day repeat-dose treatment; conditions: for IC50 / pIC50: Homo sapiens, 336 h; for IC50: Hepatocyte, read-out: Geomean IC50 [µM]
[4] = Clinical DILI severity categorization and DILI pattern; conditions: P = DILI severity categories 1, 2 and 3; N = categories 4 and 5
[5] = cited from earlier work; for P/N (DILI positive / DILI negative): P = DILI severity categories 1, 2 and 3, N = categories 4 and 5; for DILI category: clinical, from literature and product labels
[6] = cited from earlier work
[7] = system: 3D human liver microtissues (hLiMT); assay: Cytotoxicity (cellular ATP) in 3D human liver microtissues, 5-6 days treatment; assay type: cell-based; conditions: Homo sapiens; hLiMT, 5/6 days, ATP content; read-out: IC50 SHORT;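 note: Hanging-drop spheroids, seven-point dilution series, re-dosed on day 3, CellTiter-Glo 2.0 luminescence, normalized to 0.5 or 1% DMSO vehicle controls on the same plate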
[8] = system: 3D human liver microtissues (hLiMT); assay: alpha-GST release into hLiMT supernatant (ELISA); assay type: cell-based; conditions: 336 h, 14 days, release into medium, read-out: IC50 (α-GST assay)
[9] = Table 1, ref Garside et al. (2014)
[10] = clinical DILI severity category, 1-5
[11] = table S-5, ref Garside et al. 2014
[12] = human Cmax total, used for IC50/Cmax
[13] = human total plasma Cmax, ref literature values
[14] = table S-4, ref Garside et al. 2014

Row | SMILES | FDA DILI Classification DILI severity score [1] | LTKB DILI classification [1] | pIC50 [2] | IC50 [3] | P/N (DILI positive / DILI negative) [4] | P/N (DILI positive / DILI negative) [5] | DILI severity category [5, 9] | DILI severity category [5, 10] | DILI category ([5]; ref Garside et al. 2014) | DILI severity category [5, 11] | Cmax [6, 12] | Cmax [6, 13] | pIC50 [7] | also measured
1 | C[C@@H]1C[C@H]2[C@@H]3CCC4=CC(=O)C=C[C@]4(C)[C@@]3(F)[C@@H](O)C[C@]2(C)[C@@]1(O)C(=O)CO [Dexamethasone] | 3 | Ambiguous DILI concern | < 4.00 | > 100 µM | N | N | 4: Enzyme elevations in clinic (N = 16) | 4. Enzyme Elevations in Clinic | 4. Enzyme Elevations in Clinic | 4. Enzyme Elevations in Clinic | 220 nM | 220 nM | – | –
2 | CCCCNc1cc(C(=O)O)cc(S(N)(=O)=O)c1Oc1ccccc1 [Bumetanide] | 3 | Ambiguous DILI concern | < 5.00 | > 10 µM | N | N | 4: Enzyme elevations in clinic (N = 16) | 4. Enzyme Elevations in Clinic | 4. Enzyme Elevations in Clinic | – | 84.8 nM | 84.8 nM | – | –
3 | [H]/N=C(/N)N[C@H]1[C@H](O)[C@@H](O)[C@H](O[C@@H]2O[C@@H](C)[C@](O)(C=O)[C@H]2O[C@@H]2O[C@@H](CO)[C@H](O)[C@@H](O)[C@@H]2NC)[C@@H](N/C(N)=N\[H])[C@@H]1O [Streptomycin] | – | no DILI concern | < 4.00 | > 100 µM | N | N | 5: No DILI (N = 25) | 5. No DILI | 5. No DILI | – | 64500 nM | 64500 nM | 4.00 | P/N ([5]; binary DILI classification, table S-4): N; DILI severity category [5, 14]: 5
4 | CCc1nn(CCCN2CCN(c3cccc(Cl)c3)CC2)c(=O)n1CCOc1ccccc1 [Nefazodone] | 8 | most DILI concern | 4.44 | ~29.4 µM | – | – | 1: Severe clinical DILI (N = 23) | 1. Severe Clinical DILI | 1. Severe Clinical DILI | 1. Severe Clinical DILI | 4300 nM | 4260 nM | 4.60 | pIC50 [8]: 4.31; classification at 50× MOS threshold ([2]; PHH 48 h): hepatotoxic; pIC50 ([3]; read-out: IC50 (ATP-assay)): ~4.35; pIC50 ([3]; read-out: IC50 LONG): 4.53; classification at 50× MOS threshold ([3]; hLiMT 14 days): hepatotoxic; DILI severity category [5, 14]: 1
5 | CC(C)(C)NC[C@H](O)COc1ccccc1C1CCCC1 [Penbutolol] | – | no DILI concern | 4.80 | ~39 µM | N | N | 4: Enzyme elevations in clinic (N = 16) | 4. Enzyme Elevations in Clinic | 4. Enzyme Elevations in Clinic | – | 1030 nM | 1030 nM | – | classification at 100 μM IC50 threshold ([2]; PHH 48 h): false positives; classification at 100 μM IC50 threshold ([3]; hLiMT 14 days): false positives
6 | CC(C)(C)NCC(O)COc1cccc2c1CC(O)C(O)C2 (stereo not shown) [Nadolol] | 3 | Ambiguous DILI concern | < 4.00 | > 100 µM | N | N | 4: Enzyme elevations in clinic (N = 16) | 4. Enzyme Elevations in Clinic | 4. Enzyme Elevations in Clinic | 4. Enzyme Elevations in Clinic | 810 nM | 810 nM | – | –
7 | CNC1(C)C2CCC(C2)C1(C)C (stereo not shown) [Mecamylamine] | 0 | no DILI concern | < 4.30 | > 25 µM | N | N | 5: No DILI (N = 25) | 5. No DILI | 5. No DILI | – | – | 140 nM | – | –
8 | CCOC(=O)c1ncn2c1CN(C)C(=O)c1cc(F)ccc1-2 [Flumazenil] | 0 | no DILI concern | < 3.60 | > 250 µM | N | N | 5: No DILI (N = 25) | 5. No DILI | 5. No DILI | – | 1120 nM | 1120 nM | – | –
9 | O=C(O)Cc1ccccc1Nc1c(Cl)cccc1Cl [Diclofenac] | – | – | < 3.30 | ~61.4 µM | – | – | – | – | – | – | 10100 nM | 10100 nM | 4.00 | pIC50 [8]: 3.68; pIC50 ([3]; read-out: IC50 (ATP-assay)): 4.34; pIC50 ([3]; read-out: IC50 LONG): 4.21
10 | CC(=O)Nc1ccc(O)cc1 [Acetaminophen] | – | – | 2.34 | ~573 µM | – | – | – | – | – | – | 165000 nM | 165000 nM | 3.04 | pIC50 [8]: 2.49; pIC50 ([3]; read-out: IC50 (ATP-assay)): 3.14; pIC50 ([3]; read-out: IC50 LONG): 3.24
11 | CN1[C@@H]2CC[C@H]1C[C@@H](OC(c1ccccc1)c1ccccc1)C2 [Benztropine] | 0 | no DILI concern | – | – | N | N | 5: No DILI (N = 25) | 5. No DILI | 5. No DILI | – | 585 nM | 590 nM | – | classification at 50× MOS threshold ([2]; PHH 48 h): false positive; classification at 50× MOS threshold ([3]; hLiMT 14 days): false positive
12 | C1CCC(C(CC2CCCCN2)C2CCCCC2)CC1 (stereo not shown) [Perhexiline] | 8 | most DILI concern | 4.95 | ~2.6 µM | – | – | 1: Severe clinical DILI (N = 23) | 1. Severe Clinical DILI | 1. Severe Clinical DILI | 1. Severe Clinical DILI | – | – | 5.38 | pIC50 [8]: 5.20; pIC50 ([3]; read-out: IC50 (ATP-assay)): 5.70; pIC50 ([3]; read-out: IC50 LONG): 5.60; DILI severity category [5, 14]: 1
13 | C[N+](C)(C)C[C@H](O)CC(=O)[O-] [Levocarnitine] | – | no DILI concern | < 2.00 | > 10000 µM | N | N | 5: No DILI (N = 25) | 5. No DILI | 5. No DILI | 5. No DILI | 85700 nM | 85700 nM | – | –
14 | CC(C)[N+](C)(CCOC(=O)C1c2ccccc2Oc2ccccc21)C(C)C [Propantheline] | 0 | no DILI concern | < 4.30 | > 50 µM | N | N | 5: No DILI (N = 25) | 5. No DILI | 5. No DILI | – | 440 nM | 440 nM | – | –
